Experiments:
[1] = Comparative HPPD stability: decomposition of mesotrione in the formulation acidified by various acids; format: physicochemical
Method: The final formulation is prepared by 134.4 grams of the S-metolachlor CS with 22.9 grams of water and under agitation adding 15.2 grams of the mesotrione millbase. This is followed by the addition of 152.7 grams of the Potassium Glyphosate concentrate and then 17.5 grams of the Rhodopol 23 pregel of the previous example. […]

[2] = Stability of mesotrione in chloroacetamides (Example 6, FIG. 1 and FIG. 2); format: physicochemical; details: in chloroacetamides (S-MOC=S-metolachlor)
Method: Experiments were conducted to look at the stability of mesotrione in chloroacetamides.

Question: Which “Percentage Decomposition of Mesotrione” value ([1]; Gluconic acid, 38 C., 1 MONTH) does the source give for `CS(=O)(=O)c1ccc(C(=O)C2C(=O)CCCC2=O)c([N+](=O)[O-])c1` [Mesotrione, 2-(2′-nitro-4′-methylsulphonylbenzoyl)-1,3-cyclohexanedione] here?
Answer: The value was 4.30%.

Question: What about the “Percentage Decomposition of Mesotrione” value ([1]; Gluconic acid, 38 C., 1 WEEK) of the same compound?
Answer: The value was 1.59%.

Question: What about the “Percentage Decomposition of Mesotrione” value ([1]; Gluconic acid, 38 C., 2 MONTHS) of the same compound?
Answer: Its value is 7.42%.

Question: What about the “Percentage Decomposition of Mesotrione” value ([1]; Gluconic acid, 38 C., 2 WEEKS) of the same compound?
Answer: The value was 1.77%.

Question: What about the “Percentage Decomposition of Mesotrione” value ([1]; Gluconic acid, 38 C., 3 MONTHS) of the same compound?
Answer: Its value is 11.23%.

Question: And the “Percentage Decomposition of Mesotrione” value ([1]; Gluconic acid, 38 C., 3 WEEKS)?
Answer: The value was 3.00%.

Question: What about the “Percentage Decomposition of Mesotrione” value ([1]; Gluconic acid, 45 C., 1 MONTH) of the same compound?
Answer: Its value is 10.22%.

Question: And the “Percentage Decomposition of Mesotrione” value ([1]; Gluconic acid, 45 C., 1 WEEK)?
Answer: Its value is 1.75%.

Question: What about the “Percentage Decomposition of Mesotrione” value ([1]; Gluconic acid, 45 C., 2 MONTHS) of the same compound?
Answer: Its value is 23.39%.

Question: What about the “Percentage Decomposition of Mesotrione” value ([1]; Gluconic acid, 45 C., 2 WEEKS) of the same compound?
Answer: Its value is 4.91%.

Question: What about the “Percentage Decomposition of Mesotrione” value ([1]; Gluconic acid, 45 C., 3 MONTHS) of the same compound?
Answer: The value was 35.81%.

Question: And the “Percentage Decomposition of Mesotrione” value ([1]; Gluconic acid, 45 C., 3 WEEKS)?
Answer: Its value is 6.77%.

Question: What about the “Percentage Decomposition of Mesotrione” value ([1]; Gluconic acid, 50 C., 1 MONTH) of the same compound?
Answer: Its value is 26.24%.

Question: And the “Percentage Decomposition of Mesotrione” value ([1]; Gluconic acid, 50 C., 1 WEEK)?
Answer: The value was 5.91%.

Question: And the “Percentage Decomposition of Mesotrione” value ([1]; Gluconic acid, 50 C., 2 MONTHS)?
Answer: The value was 54.80%.

Question: What about the “Percentage Decomposition of Mesotrione” value ([1]; Gluconic acid, 50 C., 2 WEEKS) of the same compound?
Answer: The value was 11.61%.

Question: And the “Percentage Decomposition of Mesotrione” value ([1]; Gluconic acid, 50 C., 3 DAYS)?
Answer: Its value is 3.26%.

Question: And the “Percentage Decomposition of Mesotrione” value ([1]; Gluconic acid, 50 C., 3 MONTHS)?
Answer: Its value is 73.08%.

Question: And the “Percentage Decomposition of Mesotrione” value ([1]; Gluconic acid, 50 C., 3 WEEKS)?
Answer: Its value is 17.40%.

Question: What about the “Percentage Decomposition of Mesotrione” value ([1]; Gluconic acid, −18 C., 6 MONTHS) of the same compound?
Answer: Its value is −0.18%.

Question: What about the “Percentage Decomposition of Mesotrione” value ([1]; No acid, 38 C., 1 MONTH) of the same compound?
Answer: The value was 17.27%.

Question: And the “Percentage Decomposition of Mesotrione” value ([1]; No acid, 38 C., 1 WEEK)?
Answer: The value was 4.63%.

Question: And the “Percentage Decomposition of Mesotrione” value ([1]; No acid, 38 C., 2 MONTHS)?
Answer: Its value is 25.52%.

Question: And the “Percentage Decomposition of Mesotrione” value ([1]; No acid, 38 C., 2 WEEKS)?
Answer: The value was 9.97%.

Question: What about the “Percentage Decomposition of Mesotrione” value ([1]; No acid, 38 C., 3 MONTHS) of the same compound?
Answer: Its value is 31.02%.

Question: What about the “Percentage Decomposition of Mesotrione” value ([1]; No acid, 38 C., 3 WEEKS) of the same compound?
Answer: The value was 13.05%.

Question: And the “Percentage Decomposition of Mesotrione” value ([1]; No acid, 45 C., 1 MONTH)?
Answer: Its value is 32.01%.

Question: And the “Percentage Decomposition of Mesotrione” value ([1]; No acid, 45 C., 1 WEEK)?
Answer: Its value is 11.97%.

Question: What about the “Percentage Decomposition of Mesotrione” value ([1]; No acid, 45 C., 2 MONTHS) of the same compound?
Answer: Its value is 49.76%.

Question: And the “Percentage Decomposition of Mesotrione” value ([1]; No acid, 45 C., 2 WEEKS)?
Answer: The value was 19.71%.

Question: And the “Percentage Decomposition of Mesotrione” value ([1]; No acid, 45 C., 3 MONTHS)?
Answer: The value was 62.57%.

Question: What about the “Percentage Decomposition of Mesotrione” value ([1]; No acid, 45 C., 3 WEEKS) of the same compound?
Answer: The value was 25.71%.

Question: And the “Percentage Decomposition of Mesotrione” value ([1]; No acid, 50 C., 1 MONTH)?
Answer: The value was 53.82%.

Question: And the “Percentage Decomposition of Mesotrione” value ([1]; No acid, 50 C., 1 WEEK)?
Answer: The value was 20.39%.

Question: And the “Percentage Decomposition of Mesotrione” value ([1]; No acid, 50 C., 2 MONTHS)?
Answer: Its value is 77.94%.

Question: What about the “Percentage Decomposition of Mesotrione” value ([1]; No acid, 50 C., 2 WEEKS) of the same compound?
Answer: The value was 35.25%.

Question: And the “Percentage Decomposition of Mesotrione” value ([1]; No acid, 50 C., 3 DAYS)?
Answer: Its value is 11.30%.

Question: What about the “Percentage Decomposition of Mesotrione” value ([1]; No acid, 50 C., 3 MONTHS) of the same compound?
Answer: The value was 88.38%.

Question: And the “Percentage Decomposition of Mesotrione” value ([1]; No acid, 50 C., 3 WEEKS)?
Answer: Its value is 46.31%.

Question: And the “Percentage Decomposition of Mesotrione” value ([1]; No acid, −18 C., 6 MONTHS)?
Answer: Its value is 1.07%.

Question: What about the “Percentage Decomposition of Mesotrione” value ([1]; Phosphoric acid, 38 C., 1 MONTH) of the same compound?
Answer: The value was 3.48%.

Question: And the “Percentage Decomposition of Mesotrione” value ([1]; Phosphoric acid, 38 C., 1 WEEK)?
Answer: Its value is 1.30%.

Question: And the “Percentage Decomposition of Mesotrione” value ([1]; Phosphoric acid, 38 C., 2 MONTHS)?
Answer: Its value is 5.08%.

Question: And the “Percentage Decomposition of Mesotrione” value ([1]; Phosphoric acid, 38 C., 2 WEEKS)?
Answer: The value was 1.09%.

Question: What about the “Percentage Decomposition of Mesotrione” value ([1]; Phosphoric acid, 38 C., 3 MONTHS) of the same compound?
Answer: The value was 7.65%.

Question: And the “Percentage Decomposition of Mesotrione” value ([1]; Phosphoric acid, 38 C., 3 WEEKS)?
Answer: The value was 1.40%.

Question: And the “Percentage Decomposition of Mesotrione” value ([1]; Phosphoric acid, 45 C., 1 MONTH)?
Answer: Its value is 7.12%.

Question: What about the “Percentage Decomposition of Mesotrione” value ([1]; Phosphoric acid, 45 C., 1 WEEK) of the same compound?
Answer: The value was 1.87%.

Question: What about the “Percentage Decomposition of Mesotrione” value ([1]; Phosphoric acid, 45 C., 2 MONTHS) of the same compound?
Answer: The value was 14.59%.

Question: And the “Percentage Decomposition of Mesotrione” value ([1]; Phosphoric acid, 45 C., 2 WEEKS)?
Answer: The value was 2.43%.

Question: And the “Percentage Decomposition of Mesotrione” value ([1]; Phosphoric acid, 45 C., 3 MONTHS)?
Answer: The value was 23.48%.

Question: What about the “Percentage Decomposition of Mesotrione” value ([1]; Phosphoric acid, 45 C., 3 WEEKS) of the same compound?
Answer: The value was 3.13%.

Question: What about the “Percentage Decomposition of Mesotrione” value ([1]; Phosphoric acid, 50 C., 1 MONTH) of the same compound?
Answer: Its value is 16.79%.

Question: What about the “Percentage Decomposition of Mesotrione” value ([1]; Phosphoric acid, 50 C., 1 WEEK) of the same compound?
Answer: The value was 2.93%.

Question: What about the “Percentage Decomposition of Mesotrione” value ([1]; Phosphoric acid, 50 C., 2 MONTHS) of the same compound?
Answer: The value was 36.38%.

Question: And the “Percentage Decomposition of Mesotrione” value ([1]; Phosphoric acid, 50 C., 2 WEEKS)?
Answer: Its value is 7.09%.

Question: And the “Percentage Decomposition of Mesotrione” value ([1]; Phosphoric acid, 50 C., 3 DAYS)?
Answer: The value was 1.77%.

Question: What about the “Percentage Decomposition of Mesotrione” value ([1]; Phosphoric acid, 50 C., 3 MONTHS) of the same compound?
Answer: Its value is 58.11%.

Question: What about the “Percentage Decomposition of Mesotrione” value ([1]; Phosphoric acid, 50 C., 3 WEEKS) of the same compound?
Answer: Its value is 10.85%.

Question: What about the “Percentage Decomposition of Mesotrione” value ([1]; Phosphoric acid, −18 C., 6 MONTHS) of the same compound?
Answer: Its value is 0.94%.

Question: And the “Percentage Decomposition of Mesotrione” value ([1]; Toluene-sulfonic acid, 38 C., 1 MONTH)?
Answer: Its value is 2.81%.

Question: And the “Percentage Decomposition of Mesotrione” value ([1]; Toluene-sulfonic acid, 38 C., 1 WEEK)?
Answer: Its value is 0.75%.

Question: What about the “Percentage Decomposition of Mesotrione” value ([1]; Toluene-sulfonic acid, 38 C., 2 MONTHS) of the same compound?
Answer: Its value is 4.00%.

Question: What about the “Percentage Decomposition of Mesotrione” value ([1]; Toluene-sulfonic acid, 38 C., 2 WEEKS) of the same compound?
Answer: The value was 0.78%.

Question: And the “Percentage Decomposition of Mesotrione” value ([1]; Toluene-sulfonic acid, 38 C., 3 MONTHS)?
Answer: Its value is 2.14%.

Question: What about the “Percentage Decomposition of Mesotrione” value ([1]; Toluene-sulfonic acid, 38 C., 3 WEEKS) of the same compound?
Answer: The value was 1.74%.

Question: And the “Percentage Decomposition of Mesotrione” value ([1]; Toluene-sulfonic acid, 45 C., 1 MONTH)?
Answer: Its value is 5.85%.

Question: What about the “Percentage Decomposition of Mesotrione” value ([1]; Toluene-sulfonic acid, 45 C., 1 WEEK) of the same compound?
Answer: The value was 1.64%.

Question: What about the “Percentage Decomposition of Mesotrione” value ([1]; Toluene-sulfonic acid, 45 C., 2 MONTHS) of the same compound?
Answer: The value was 11.08%.

Question: What about the “Percentage Decomposition of Mesotrione” value ([1]; Toluene-sulfonic acid, 45 C., 2 WEEKS) of the same compound?
Answer: Its value is 3.06%.

Question: And the “Percentage Decomposition of Mesotrione” value ([1]; Toluene-sulfonic acid, 45 C., 3 MONTHS)?
Answer: The value was 18.29%.

Question: And the “Percentage Decomposition of Mesotrione” value ([1]; Toluene-sulfonic acid, 45 C., 3 WEEKS)?
Answer: Its value is 4.12%.

Question: What about the “Percentage Decomposition of Mesotrione” value ([1]; Toluene-sulfonic acid, 50 C., 1 MONTH) of the same compound?
Answer: The value was 13.91%.

Question: And the “Percentage Decomposition of Mesotrione” value ([1]; Toluene-sulfonic acid, 50 C., 1 WEEK)?
Answer: The value was 2.32%.

Question: What about the “Percentage Decomposition of Mesotrione” value ([1]; Toluene-sulfonic acid, 50 C., 2 MONTHS) of the same compound?
Answer: Its value is 28.00%.

Question: What about the “Percentage Decomposition of Mesotrione” value ([1]; Toluene-sulfonic acid, 50 C., 2 WEEKS) of the same compound?
Answer: The value was 5.94%.

Question: What about the “Percentage Decomposition of Mesotrione” value ([1]; Toluene-sulfonic acid, 50 C., 3 DAYS) of the same compound?
Answer: Its value is 2.11%.

Question: And the “Percentage Decomposition of Mesotrione” value ([1]; Toluene-sulfonic acid, 50 C., 3 MONTHS)?
Answer: Its value is 44.55%.

Question: And the “Percentage Decomposition of Mesotrione” value ([1]; Toluene-sulfonic acid, 50 C., 3 WEEKS)?
Answer: Its value is 9.69%.

Question: What about the “Percentage Decomposition of Mesotrione” value ([1]; Toluene-sulfonic acid, −18 C., 6 MONTHS) of the same compound?
Answer: Its value is 0.05%.

Question: And the “stability of mesotrione in chloroacetamides” value [2]?
Answer: The value was “lack of stability”.

From patent US9468213B2, “Herbicide formulation” (Syngenta Crop Protection LLC, priority 2008, dated 2016)
